PubChem BioAssay (NCI)
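The compound was tested at five concentrations on cells cultured in 96-well plates, with a 48-hour exposure period. GI50: concentration for 50% inhibition of growth. The concentration for full growth arrest is given as TGI.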

Experiments:
Assay in all cases: inhibition of tumour cell growth, NCI panel, 48 h; in the data active = GI50 below about 0.43 µM; inactive = the rest
786-0 renal = system: 786-0 renal
A498 renal = system: A498 renal
A549 NSCLC = system: A549 NSCLC
ACHN renal = system: ACHN renal
BT-549 breast = system: BT-549 breast
CAKI-1 renal = system: CAKI-1 renal
CCRF-CEM leukemia = system: CCRF-CEM leukemia
COLO 205 colon = system: COLO 205 colon
DU-145 prostate = system: DU-145 prostate
EKVX NSCLC = system: EKVX NSCLC
HCC-2998 colon = system: HCC-2998 colon
HCT-116 colon = system: HCT-116 colon
HCT-15 colon = system: HCT-15 colon
HL-60(TB) leukemia = system: HL-60(TB) leukemia
HOP-62 NSCLC = system: HOP-62 NSCLC
HOP-92 NSCLC = system: HOP-92 NSCLC
HS 578T breast = system: HS 578T breast
HT29 colon = system: HT29 colon
IGROV1 ovarian = system: IGROV1 ovarian
K-562 leukemia = system: K-562 leukemia
KM12 colon = system: KM12 colon
LOX IMVI melanoma = system: LOX IMVI melanoma
M14 melanoma = system: M14 melanoma
MALME-3M melanoma = system: MALME-3M melanoma
MCF7 breast = system: MCF7 breast
MDA-MB-231 breast = system: MDA-MB-231 breast
MDA-MB-435 = system: MDA-MB-435
MDA-N = system: MDA-N
MOLT-4 leukemia = system: MOLT-4 leukemia
NCI-H226 lung = system: NCI-H226 lung
NCI-H23 lung = system: NCI-H23 lung
NCI-H460 lung = system: NCI-H460 lung
NCI-H522 lung = system: NCI-H522 lung
NCI/ADR-RES ovarian = system: NCI/ADR-RES ovarian
OVCAR-3 ovarian = system: OVCAR-3 ovarian
OVCAR-4 ovarian = system: OVCAR-4 ovarian
OVCAR-5 ovarian = system: OVCAR-5 ovarian
OVCAR-8 ovarian = system: OVCAR-8 ovarian
PC-3 prostate = system: PC-3 prostate
RPMI-8226 leukemia = system: RPMI-8226 leukemia
RXF 393 renal = system: RXF 393 renal
SF-268 CNS = system: SF-268 CNS
SF-295 CNS = system: SF-295 CNS
SF-539 CNS = system: SF-539 CNS
SK-MEL-28 melanoma = system: SK-MEL-28 melanoma
SK-MEL-5 melanoma = system: SK-MEL-5 melanoma
SK-OV-3 ovarian = system: SK-OV-3 ovarian
SN12C renal = system: SN12C renal
SNB-19 CNS = system: SNB-19 CNS
SNB-75 CNS = system: SNB-75 CNS
SR leukemia = system: SR leukemia
SW-620 colon = system: SW-620 colon
TK-10 renal = system: TK-10 renal
U251 CNS = system: U251 CNS
UACC-257 melanoma = system: UACC-257 melanoma
UACC-62 melanoma = system: UACC-62 melanoma
UO-31 renal = system: UO-31 renal
SK-MEL-2 melanoma = system: SK-MEL-2 melanoma
T-47D breast = system: T-47D breast

CCOC(=O)C1=C(C)OC(=O)[C@@]2(OC)C=C(Cl)[C@@]12C
91 µM: TGI (HL-60(TB) leukemia)
> 100 µM: TGI (786-0 renal) | TGI (A498 renal) | TGI (A549 NSCLC) | TGI (ACHN renal) | TGI (BT-549 breast) | TGI (CAKI-1 renal) | TGI (CCRF-CEM leukemia) | TGI (COLO 205 colon) | TGI (DU-145 prostate) | TGI (EKVX NSCLC) | TGI (HCC-2998 colon) | TGI (HCT-116 colon) | TGI (HCT-15 colon) | TGI (HOP-62 NSCLC) | TGI (HOP-92 NSCLC) | TGI (HS 578T breast) | TGI (HT29 colon) | TGI (IGROV1 ovarian) | TGI (K-562 leukemia) | TGI (KM12 colon) | TGI (LOX IMVI melanoma) | TGI (M14 melanoma) | TGI (MALME-3M melanoma) | TGI (MCF7 breast) | TGI (MDA-MB-231 breast) | TGI (MDA-MB-435) | TGI (MDA-N) | TGI (MOLT-4 leukemia) | TGI (NCI-H226 lung) | TGI (NCI-H23 lung) | TGI (NCI-H460 lung) | TGI (NCI-H522 lung) | TGI (NCI/ADR-RES ovarian) | TGI (OVCAR-3 ovarian) | TGI (OVCAR-4 ovarian) | TGI (OVCAR-5 ovarian) | TGI (OVCAR-8 ovarian) | TGI (PC-3 prostate) | TGI (RPMI-8226 leukemia) | TGI (RXF 393 renal) | TGI (SF-268 CNS) | TGI (SF-295 CNS) | TGI (SF-539 CNS) | TGI (SK-MEL-28 melanoma) | TGI (SK-MEL-5 melanoma) | TGI (SK-OV-3 ovarian) | TGI (SN12C renal) | TGI (SNB-19 CNS) | TGI (SNB-75 CNS) | TGI (SR leukemia) | TGI (SW-620 colon) | TGI (TK-10 renal) | TGI (U251 CNS) | TGI (UACC-257 melanoma) | TGI (UACC-62 melanoma) | TGI (UO-31 renal)

C/C(=C\C1=C(Cl)C(=O)c2ccccc2C1=O)C(=O)O
36.5 µM: TGI (HCT-15 colon)
33.7 µM: TGI (HOP-62 NSCLC) | TGI (KM12 colon)
37.4 µM: TGI (OVCAR-5 ovarian) | TGI (SW-620 colon)
inactive: GI50 (786-0 renal) 17.6 µM | GI50 (A498 renal) 21.9 µM | GI50 (A549 NSCLC) 21.9 µM | GI50 (ACHN renal) 18.5 µM | GI50 (BT-549 breast) 14.2 µM | GI50 (CAKI-1 renal) 22.1 µM | GI50 (CCRF-CEM leukemia) 21.8 µM | GI50 (COLO 205 colon) 18.7 µM | GI50 (DU-145 prostate) 17.6 µM | GI50 (EKVX NSCLC) 18.6 µM | GI50 (HCC-2998 colon) 18.9 µM | GI50 (HCT-116 colon) 28.4 µM | GI50 (HCT-15 colon) 18.2 µM | GI50 (HL-60(TB) leukemia) 25.4 µM | GI50 (HOP-62 NSCLC) 18.8 µM | GI50 (HOP-92 NSCLC) 18.6 µM | GI50 (HS 578T breast) 30.3 µM | GI50 (HT29 colon) 20.1 µM | GI50 (IGROV1 ovarian) 15.1 µM | GI50 (K-562 leukemia) 23.1 µM | GI50 (KM12 colon) 18.1 µM | GI50 (LOX IMVI melanoma) 17.6 µM | GI50 (M14 melanoma) 17.7 µM | GI50 (MALME-3M melanoma) 24 µM | GI50 (MCF7 breast) 17.6 µM | GI50 (MDA-MB-231 breast) 18.6 µM | GI50 (MDA-MB-435) 19.4 µM | GI50 (MOLT-4 leukemia) 28.2 µM | GI50 (NCI-H226 lung) 19.6 µM | GI50 (NCI-H23 lung) 21.5 µM | GI50 (NCI-H460 lung) 21.9 µM | GI50 (NCI-H522 lung) 11.9 µM | GI50 (NCI/ADR-RES ovarian) 21.1 µM | GI50 (OVCAR-3 ovarian) 19.4 µM | GI50 (OVCAR-4 ovarian) 19.9 µM | GI50 (OVCAR-5 ovarian) 22.5 µM | GI50 (OVCAR-8 ovarian) 22.6 µM | GI50 (PC-3 prostate) 17.3 µM | GI50 (RPMI-8226 leukemia) 20.2 µM | GI50 (RXF 393 renal) 18.3 µM | GI50 (SF-268 CNS) 18.3 µM | GI50 (SF-295 CNS) 19 µM | GI50 (SF-539 CNS) 17.7 µM | GI50 (SK-MEL-2 melanoma) 18.1 µM | GI50 (SK-MEL-28 melanoma) 20.2 µM | GI50 (SK-MEL-5 melanoma) 17.5 µM | GI50 (SK-OV-3 ovarian) 19 µM | GI50 (SN12C renal) 24.5 µM | GI50 (SNB-19 CNS) 17.7 µM | GI50 (SNB-75 CNS) 21.5 µM | GI50 (SR leukemia) 24.2 µM | GI50 (SW-620 colon) 21.7 µM | GI50 (T-47D breast) 15.3 µM | GI50 (TK-10 renal) 23.3 µM | GI50 (U251 CNS) 15.8 µM | GI50 (UACC-62 melanoma) 17.2 µM | GI50 (UO-31 renal) 15.5 µM
40.2 µM: TGI (MALME-3M melanoma)
36.7 µM: TGI (HT29 colon)
34 µM: TGI (COLO 205 colon)
45.1 µM: TGI (NCI-H460 lung)
55.1 µM: TGI (SN12C renal)
38.1 µM: TGI (TK-10 renal)
54.9 µM: TGI (K-562 leukemia)
43 µM: TGI (A549 NSCLC)
33.1 µM: TGI (RXF 393 renal) | TGI (SK-OV-3 ovarian)
33.4 µM: TGI (SF-295 CNS) | TGI (SK-MEL-2 melanoma)
46.5 µM: TGI (RPMI-8226 leukemia)
31.9 µM: TGI (SF-539 CNS)
43.3 µM: TGI (MCF7 breast)
34.2 µM: TGI (OVCAR-3 ovarian)
31.7 µM: TGI (M14 melanoma) | TGI (SNB-19 CNS)
38.6 µM: TGI (LOX IMVI melanoma)
29.4 µM: TGI (U251 CNS)
32.2 µM: TGI (SF-268 CNS)
48.7 µM: TGI (T-47D breast)
33 µM: TGI (HOP-92 NSCLC)
> 100 µM: TGI (HCT-116 colon) | TGI (MOLT-4 leukemia) | TGI (SR leukemia)
37.5 µM: TGI (NCI-H226 lung)
32.3 µM: TGI (786-0 renal)
28.6 µM: TGI (IGROV1 ovarian)
36.6 µM: TGI (CAKI-1 renal)
37.2 µM: TGI (EKVX NSCLC)
46.2 µM: TGI (CCRF-CEM leukemia)
69.3 µM: TGI (HS 578T breast)
34.6 µM: TGI (DU-145 prostate) | TGI (SK-MEL-28 melanoma)
26.9 µM: TGI (NCI-H522 lung)
46.8 µM: TGI (NCI/ADR-RES ovarian)
31.3 µM: TGI (SK-MEL-5 melanoma)
31.1 µM: TGI (PC-3 prostate)
27.5 µM: TGI (BT-549 breast)
32.7 µM: TGI (ACHN renal)
33.3 µM: TGI (HCC-2998 colon)
28.9 µM: TGI (UO-31 renal)
36.3 µM: TGI (A498 renal) | TGI (OVCAR-4 ovarian)
33.8 µM: TGI (MDA-MB-231 breast)
45.7 µM: TGI (NCI-H23 lung)
35.9 µM: TGI (SNB-75 CNS)
63.5 µM: TGI (HL-60(TB) leukemia)
31.5 µM: TGI (UACC-62 melanoma)
45.6 µM: TGI (OVCAR-8 ovarian)
34.8 µM: TGI (MDA-MB-435)

O=P1(c2ccccc2)c2ccccc2CCc2ccccc21
> 100 µM: TGI (786-0 renal) | TGI (A549 NSCLC) | TGI (BT-549 breast) | TGI (CAKI-1 renal) | TGI (CCRF-CEM leukemia) | TGI (COLO 205 colon) | TGI (DU-145 prostate) | TGI (EKVX NSCLC) | TGI (HCC-2998 colon) | TGI (HCT-116 colon) | TGI (HCT-15 colon) | TGI (HL-60(TB) leukemia) | TGI (HOP-62 NSCLC) | TGI (HOP-92 NSCLC) | TGI (HS 578T breast) | TGI (IGROV1 ovarian) | TGI (KM12 colon) | TGI (LOX IMVI melanoma) | TGI (M14 melanoma) | TGI (MCF7 breast) | TGI (MDA-MB-231 breast) | TGI (MDA-MB-435) | TGI (MDA-N) | TGI (MOLT-4 leukemia) | TGI (NCI-H226 lung) | TGI (NCI-H23 lung) | TGI (NCI-H522 lung) | TGI (OVCAR-3 ovarian) | TGI (OVCAR-8 ovarian) | TGI (PC-3 prostate) | TGI (RPMI-8226 leukemia) | TGI (RXF 393 renal) | TGI (SF-268 CNS) | TGI (SF-295 CNS) | TGI (SF-539 CNS) | TGI (SK-MEL-2 melanoma) | TGI (SK-MEL-28 melanoma) | TGI (SK-MEL-5 melanoma) | TGI (SK-OV-3 ovarian) | TGI (SN12C renal) | TGI (SNB-19 CNS) | TGI (SNB-75 CNS) | TGI (SW-620 colon) | TGI (TK-10 renal) | TGI (UACC-257 melanoma) | TGI (UACC-62 melanoma) | TGI (UO-31 renal)
